Measurements published in patent US20250282749A1 (Tango Therapeutics, Inc., priority 2022, published 2025).

Assays:
Type in all cases: cell-based
[1] = tested on: PRMT5 (SDMA) in HAP1 MTAP-deleted cell line; test: SDMA in-cell western assay, HAP1 MTAP-deleted cell line; details: for IC50 / IC90: Homo sapiens, SDMA in-cell western, HAP1 MTAP-deleted (MTAP-null) cell line; for Hap1 MTAP intact/deleted ratio: ratio of SDMA in-cell western IC50 in HAP1 MTAP-intact to IC50 in HAP1 MTAP-deleted cell line
Text: (§1) HAP1 MTAP-intact is a cell line in which endogenous levels of MTAP are expressed, and HAP1 MTAP-deleted is an MTAP-null cell line.

[2] = tested on: HAP1 MTAP-deleted cell line; test: viability assay for the MTAP-deleted cell line; details: Homo sapiens
[3] = tested on: PRMT5 (SDMA) in HAP1 MTAP-intact cell line; test: SDMA in-cell western assay, HAP1 MTAP-intact cell line; details: Homo sapiens, HAP1 MTAP-intact cell line (endogenous MTAP), read-out: Hap 1 MTAP intact IC50
Text: as §1

| SMILES | IC50 [1] [µM] | IC90 [1] [µM] | IC50 [3] [µM] | Hap1 MTAP intact/deleted ratio [1] | IC50 [2] [µM] |
| --- | --- | --- | --- | --- | --- |
| CC(C)C(=O)N1C[C@H](c2cccc(N3CCN(C)CC3)c2)N(C(=O)C(=O)Nc2cncc3cn[nH]c23)C[C@H]1C [Compound 113, 2-((2S,5R)-4-isobutyryl-5-methyl-2-(3-(4-methylpiperazin-1-yl)phenyl)piperazin-1-yl)-2-oxo-N-(1H-pyrazolo[4,3-c]pyridin-7-yl)acetamide] | 0.005 to 0.05 | > 0.125 | > 0.05 | C (an IC50 ratio of less than 15 fold) | < 0.1 |
| C[C@@H]1CN(C(=O)C(=O)Nc2cnc(N)c(C3COC3)c2)[C@@H](c2ccc(F)cc2)CN1C(=O)C1(C(F)(F)F)CC1 [Compound 72, N-(6-amino-5-(oxetan-3-yl)pyridin-3-yl)-2-((2S,5R)-2-(4-fluorophenyl)-5-methyl-4-(1-(trifluoromethyl)cyclopropanecarbonyl)piperazin-1-yl)-2-oxoacetamide] | 0.005 to 0.05 | 0.075 to 0.125 | > 0.05 | A (an IC50 ratio greater than or equal to 30 fold) | < 0.1 |
| C[C@@H]1CN(C(=O)C(=O)Nc2cnc(N)c(C3CC3)c2)[C@@H](c2ccc(F)c(Cl)c2)CN1C(=O)C1(C(F)(F)F)CC1 [Compound 14, N-(6-amino-5-cyclopropylpyridin-3-yl)-2-((2S,5R)-2-(3-chloro-4-fluorophenyl)-5-methyl-4-(1-(trifluoromethyl)cyclopropanecarbonyl)piperazin-1-yl)-2-oxoacetamide] | < 0.005 | < 0.075 | > 0.05 | C (an IC50 ratio of less than 15 fold) | < 0.1 |
| CCN1C[C@H](c2ccccc2)N(C(=O)C(=O)Nc2cnc(N)c3cn[nH]c23)C[C@H]1C (racemic) [Compound 162, N-(4-Amino-1H-pyrazolo[4,3-c]pyridin-7-yl)-2-oxo-2-[rac-(2S,5R)-4-ethyl-5-methyl-2-phenyl-piperazin-1-yl]acetamide] | < 0.005 |  | > 0.05 | A (an IC50 ratio greater than or equal to 30 fold) | < 0.1 |
| C[C@@H]1CN(C(=O)C(=O)Nc2cncc3[nH]ncc23)[C@@H](c2ccccc2)CN1C(=O)C1(C)CC1 [Compound 147, 2-((2S,5R)-5-methyl-4-(1-methylcyclopropanecarbonyl)-2-phenylpiperazin-1-yl)-2-oxo-N-(1H-pyrazolo[3,4-c]pyridin-4-yl)acetamide] | < 0.005 | > 0.125 | > 0.05 | A (an IC50 ratio greater than or equal to 30 fold) | 0.1 to 1 |
| C[C@@H]1CN(C(=O)C(=O)Nc2cncc3cn[nH]c23)[C@@H](c2cccc(Cl)c2)CN1C(=O)C(C)(C)C [Compound 9, 2-((2S,5R)-2-(3-chlorophenyl)-5-methyl-4-pivaloylpiperazin-1-yl)-2-oxo-N-(1H-pyrazolo[4,3-c]pyridin-7-yl)acetamide] | 0.005 to 0.05 | > 0.125 | > 0.05 | B (an IC50 ratio greater than or equal to 15 fold but lower than 30 fold) | 0.1 to 1 |
| Cc1cc(NC(=O)C(=O)N2C[C@@H](C)N(C(=O)C(C)(C)CN(C)C)C[C@@H]2c2ccccc2)cnc1N [Compound 13] | 0.005 to 0.05 | < 0.075 | > 0.05 | C (an IC50 ratio of less than 15 fold) | < 0.1 |
| CC(C)C(=O)N1C[C@H](c2ccc(F)c(Cl)c2)N(C(=O)C(=O)Nc2cnc(N)c(C3CC3)c2)C[C@H]1C [Compound 24, N-(6-amino-5-cyclopropylpyridin-3-yl)-2-((2S,5R)-2-(3-chloro-4-fluorophenyl)-4-isobutyryl-5-methylpiperazin-1-yl)-2-oxoacetamide] | < 0.005 | < 0.075 | > 0.05 | B (an IC50 ratio greater than or equal to 15 fold but lower than 30 fold) | < 0.1 |
| C[C@@H]1CN(C(=O)C(=O)Nc2cncc3[nH]ncc23)[C@@H](c2ccc(F)cc2)CN1C(=O)C(C)(C)C [Compound 125, 2-[(2R,5R)-4-(2,2-dimethylpropanoyl)-2-(4-fluorophenyl)-5-methyl-piperazin-1-yl]-2-oxo-N-(^1H-pyrazolo[3,4-c]pyridin-4-yl)acetamide] | 0.005 to 0.05 | < 0.075 | > 0.05 | A (an IC50 ratio greater than or equal to 30 fold) | 0.1 to 1 |
| C[C@H]1CN(C(=O)C(=O)Nc2cnc(N)c(C3CC3)c2)[C@H](c2ccc(F)cc2)CN1C(=O)OC(C)(C)C (stereo in doubt) [Compound 146, tert-butyl 4-(2-((6-amino-5-cyclopropylpyridin-3-yl)amino)-2-oxoacetyl)-5-(4-fluorophenyl)-2-methylpiperazine-1-carboxylate] | > 0.05 | > 0.125 | > 0.05 | C (an IC50 ratio of less than 15 fold) | > 1 |

Continued, in another order:

| IC50 [1] [µM] | IC90 [1] [µM] | IC50 [3] [µM] | SMILES | Hap1 MTAP intact/deleted ratio [1] | IC50 [2] [µM] |
| --- | --- | --- | --- | --- | --- |
| 0.005 to 0.05 | > 0.125 | > 0.05 | Cc1cc(NC(=O)C(=O)N2C[C@@H](C)N(C(=O)C(C)C)C[C@@H]2c2cccc(Cl)c2)cnc1N [Compound 90, N-(6-amino-5-methylpyridin-3-yl)-2-((2S,5R)-2-(3-chlorophenyl)-4-isobutyryl-5-methylpiperazin-1-yl)-2-oxoacetamide] | B (an IC50 ratio greater than or equal to 15 fold but lower than 30 fold) | < 0.1 |
| 0.005 to 0.05 | 0.075 to 0.125 | > 0.05 | Cc1cc(NC(=O)C(=O)N2C[C@@H](C)N(C(=O)C3(C(F)(F)F)CC3)C[C@@H]2c2ccc(F)c(F)c2)cnc1N [Compound 38, N-(6-amino-5-methylpyridin-3-yl)-2-((2S,5R)-2-(3,4-difluorophenyl)-5-methyl-4-(1-(trifluoromethyl)cyclopropanecarbonyl)piperazin-1-yl)-2-oxoacetamide] | C (an IC50 ratio of less than 15 fold) | < 0.1 |
| 0.005 to 0.05 | 0.075 to 0.125 | > 0.05 | COc1ncc(NC(=O)C(=O)N2C[C@@H](C)N(C(=O)C3(C(F)(F)F)CC3)C[C@@H]2c2ccc(F)c(Cl)c2)cc1C(N)=O [Compound 63, 5-(2-((2S,5R)-2-(3-chloro-4-fluorophenyl)-5-methyl-4-(1-(trifluoromethyl)cyclopropanecarbonyl)piperazin-1-yl)-2-oxoacetamido)-2-methoxynicotinamide] | A (an IC50 ratio greater than or equal to 30 fold) | 0.1 to 1 |
| 0.005 to 0.05 | > 0.125 | > 0.05 | CC(C)CN1C[C@H](c2ccccc2)N(C(=O)C(=O)Nc2cnc(N)c(C3CC3)c2)C[C@H]1C [Compound 122, N-(6-amino-5-cyclopropylpyridin-3-yl)-2-((2S,5R)-4-isobutyl-5-methyl-2-phenylpiperazin-1-yl)-2-oxoacetamide] | B (an IC50 ratio greater than or equal to 15 fold but lower than 30 fold) | < 0.1 |
| 0.005 to 0.05 | > 0.125 | > 0.05 | CCc1cc(NC(=O)C(=O)N2C[C@@H](C)N(C(=O)C3(C(F)(F)F)CC3)C[C@@H]2c2cccc(C(F)(F)F)c2)cnc1N [Compound 150, N-(6-amino-5-ethylpyridin-3-yl)-2-((2S,5R)-5-methyl-4-(1-(trifluoromethyl)cyclopropanecarbonyl)-2-(3-(trifluoromethyl)phenyl)piperazin-1-yl)-2-oxoacetamide] | A (an IC50 ratio greater than or equal to 30 fold) | < 0.1 |
| < 0.005 | < 0.075 | 0.005 to 0.05 | Cc1cc(NC(=O)C(=O)N2C[C@@H](C)N(C(=O)C3(C)CC3)C[C@@H]2c2ccc(Cl)cc2)cnc1N [Compound 65] | C (an IC50 ratio of less than 15 fold) | < 0.1 |
| < 0.005 | < 0.075 | 0.005 to 0.05 | CCc1cc(NC(=O)C(=O)N2C[C@@H](C)N(C(=O)C3(C(F)(F)F)CC3)C[C@@H]2c2ccc(N3CCN(C)CC3)cc2)cnc1N [Compound 132, N-(6-amino-5-ethylpyridin-3-yl)-2-((2S,5R)-5-methyl-2-(4-(4-methylpiperazin-1-yl)phenyl)-4-(1-(trifluoromethyl)cyclopropanecarbonyl)piperazin-1-yl)-2-oxoacetamide] | C (an IC50 ratio of less than 15 fold) | < 0.1 |
| 0.005 to 0.05 | 0.075 to 0.125 | > 0.05 | Cc1cc(NC(=O)C(=O)N2C[C@@H](C)N(C(=O)OC3(C)CC3)C[C@@H]2c2ccc(F)cc2)cnc1N [Compound 120] | B (an IC50 ratio greater than or equal to 15 fold but lower than 30 fold) | 0.1 to 1 |
| 0.005 to 0.05 | > 0.125 | > 0.05 | Cc1cc(NC(=O)C(=O)N2C[C@@H](C)N(C(=O)C(C)(C)CN3CCn4ccnc4C3)C[C@@H]2c2ccccc2)cnc1N [Compound 109] | C (an IC50 ratio of less than 15 fold) | 0.1 to 1 |
| 0.005 to 0.05 | > 0.125 | > 0.05 | CC(C)C(=O)N1C[C@H](c2ccc(F)c(F)c2)N(C(=O)C(=O)Nc2cnc(N)c(C3CC3)c2)C[C@H]1C [Compound 75, N-(6-amino-5-cyclopropylpyridin-3-yl)-2-((5R)-2-(3,4-difluorophenyl)-4-isobutyryl-5-methylpiperazin-1-yl)-2-oxoacetamide] | C (an IC50 ratio of less than 15 fold) | < 0.1 |
